For orientation: Ki means a measure of affinity in units of concentration, obtained from inhibition or displacement.

The target in this test is T1, hMCHR (MCH receptor) (Homo sapiens, UniProt Q99705).
T1 construct: (or internally produced); host or cells: CHO (Chinese hamster ovary) cells, membrane preparation
The test is described as follows: MCH Assay PCOP Protocol ([125I]-MCH SPA binding to hMCHR-CHO membranes). To be noted: [125I]-MCH SPA binding, hMCHR-CHO membranes; Ki class ranges; read-out: Activity (range of Ki). The method, boiled down: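 SPA binding with 10 μg hMCHR-CHO membranes and WGA-SPA beads in 25 mM HEPES pH 7.4, 10 mM NaCl, 10 mM MgCl2, 5 mM MnCl2, 0.1% BSA.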

T1 sequence (Q99705 whole entry): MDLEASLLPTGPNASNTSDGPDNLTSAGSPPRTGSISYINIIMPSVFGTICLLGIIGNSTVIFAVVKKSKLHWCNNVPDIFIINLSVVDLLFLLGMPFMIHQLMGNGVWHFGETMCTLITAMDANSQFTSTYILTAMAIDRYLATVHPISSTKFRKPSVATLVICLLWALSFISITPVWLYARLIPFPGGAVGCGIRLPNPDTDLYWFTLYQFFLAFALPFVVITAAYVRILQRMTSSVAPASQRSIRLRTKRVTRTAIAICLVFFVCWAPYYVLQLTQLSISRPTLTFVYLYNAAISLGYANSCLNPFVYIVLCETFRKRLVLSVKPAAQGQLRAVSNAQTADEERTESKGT

Consider `O=C(NCC(CCN1CCC(CO)C1)c1ccc(Cl)c(Cl)c1)Nc1cc(C(F)(F)F)cc(C(F)(F)F)c1` (stereo not shown) [Example 432], for which the inhibition constant (Ki) lay in the range of 501 to 2500 nM. In the case of `CCN(CC)CCC(CNC(=O)Nc1cc(C(F)(F)F)cc(C(F)(F)F)c1)c1ccc(Cl)c(Cl)c1` (stereo not shown) [Example 433], the Ki was 501 to 2500 nM. For `COc1ccc2[nH]cc(CCNCCC(CNC(=O)Nc3cc(C(F)(F)F)cc(C(F)(F)F)c3)c3ccc(Cl)c(Cl)c3)c2c1` (stereo not shown) [Example 434], the Ki fell in the range of 501 to 2500 nM. The value for `CCN(CCC(CNC(=O)Nc1cc(C(F)(F)F)cc(C(F)(F)F)c1)c1ccc(Cl)c(Cl)c1)Cc1ccncc1` (stereo not shown) [Example 435] was 501 to 2500 nM; that for `CS(=O)(=O)c1ccc(CNCCC(CNC(=O)Nc2cc(C(F)(F)F)cc(C(F)(F)F)c2)c2ccc(Cl)c(Cl)c2)cc1` (stereo not shown) [Example 436] was 501 to 2500 nM. For the molecule `COc1ccc2c(CCNCCC(CNC(=O)Nc3cc(C(F)(F)F)cc(C(F)(F)F)c3)c3ccc(Cl)c(Cl)c3)c[nH]c2c1` (stereo not shown) [Example 437], the Ki was 501 to 2500 nM.

As for `CC(Cc1c[nH]c2ccccc12)NCCC(CNC(=O)Nc1cc(C(F)(F)F)cc(C(F)(F)F)c1)c1ccc(Cl)c(Cl)c1` (stereo not shown) [Example 438], the inhibition constant Ki was 501 to 2500 nM.

On to `CC(Cc1c[nH]c2ccc(F)cc12)NCCC(CNC(=O)Nc1cc(C(F)(F)F)cc(C(F)(F)F)c1)c1ccc(Cl)c(Cl)c1` (stereo not shown) [Example 439], for which the Ki was in the range of 501 to 2500 nM. In the case of `CCCCN(CCC(CNC(=O)Nc1cc(C(F)(F)F)cc(C(F)(F)F)c1)c1ccc(Cl)c(Cl)c1)C1CC1` (stereo not shown) [Example 440] it was 501 to 2500 nM.

Regarding `COCC1CCCN1CCC(CNC(=O)Nc1cc(C(F)(F)F)cc(C(F)(F)F)c1)c1ccc(Cl)c(Cl)c1` (stereo not shown) [Example 441], the inhibition constant (Ki) lay within 501 to 2500 nM. The value for `Cc1ccc(C(CCN2CCC(N3CCCCC3)CC2)CNC(=O)Nc2cc(C(F)(F)F)cc(C(F)(F)F)c2)cc1` (stereo not shown) [Example 443] was 51 to 500 nM.

In the case of `O=C(NCC(CCN1CCCCC1)c1ccc(Cl)c(Cl)c1)Nc1cc(C(F)(F)F)cc(C(F)(F)F)c1` (stereo not shown) [Example 444], the Ki was 51 to 500 nM.

On to `Cc1ccc(C(CCN2CCCCC2)CNC(=O)Nc2cc(C(F)(F)F)cc(C(F)(F)F)c2)cc1` (stereo not shown) [Example 445], for which the Ki lay in the range of 501 to 2500 nM. In the case of `O=C(NCC(CCN1CCCCC1)c1ccc(Cl)c(Cl)c1)c1cc(Cl)cc(Cl)c1` (stereo not shown) [Example 446] it was 501 to 2500 nM; in that of `O=C(NCC(CCN1CCCCC1)c1ccc(Cl)c(Cl)c1)c1cccc(Cl)c1` (stereo not shown) [Example 447], 501 to 2500 nM; in that of `O=C(Cc1ccc(Cl)c(Cl)c1)NCC(CCN1CCC(N2CCCCC2)CC1)c1ccc(Cl)c(Cl)c1` (stereo not shown) [Example 448], 501 to 2500 nM.

Take `O=C(NCC(CCN1CCCCC1)c1ccc(Cl)c(Cl)c1)c1cccc(C(F)(F)F)c1` (stereo not shown) [Example 449]: the Ki was 501 to 2500 nM. `Cc1ccc(C(=O)NCC(CCN2CCCCC2)c2ccc(Cl)c(Cl)c2)cc1` (stereo not shown) [Example 450]: the Ki fell in the range of 501 to 2500 nM. In the case of `Cc1ccc(C(CCN2CCC(N3CCCCC3)CC2)CNC(=O)Cc2ccc(Cl)c(Cl)c2)cc1` (stereo not shown) [Example 451] it was 501 to 2500 nM. As to `O=C(NCC(CCN1CCC(N2CCCCC2)CC1)c1ccc(Cl)c(Cl)c1)c1cc(Cl)cc(Cl)c1` (stereo not shown) [Example 452], the Ki was in the range of 501 to 2500 nM. In the case of `N#Cc1cccc(C(=O)NCC(CCN2CCCCC2)c2ccc(Cl)c(Cl)c2)c1` (stereo not shown) [Example 453] it was 501 to 2500 nM.

Take `Cc1ccc(C(CCN2CCCCC2)CNC(=O)c2cc(C(F)(F)F)cc(C(F)(F)F)c2)cc1` (stereo not shown) [Example 454]: the Ki lay within 501 to 2500 nM. In the case of `O=C(NCC(CCN1CCCCC1)c1ccc(Cl)c(Cl)c1)c1ccc(F)cc1` (stereo not shown) [Example 455] it was 501 to 2500 nM. In the case of `Cc1cc(C)cc(C(=O)NCC(CCN2CCCCC2)c2ccc(Cl)c(Cl)c2)c1` (stereo not shown) [Example 456] it was 501 to 2500 nM; in that of `O=C(NCc1cc(C(F)(F)F)cc(C(F)(F)F)c1)C(CCN1CCC(N2CCCCC2)CC1)c1ccc(Cl)c(Cl)c1` (stereo not shown) [Example 457], 501 to 2500 nM.

These data come from US7034056B2, “Aryl and biaryl compounds having MCH modulatory activity” (Pharmacopeia Drug Discovery, inc., priority 2001, dated 2006).
